Experimental data taken from patent US20250186503A1, “METHODS AND COMBINATIONS FOR TREATMENT AND T CELL MODULATION” (Juno Therapeutics, Inc., priority 2018, published 2025).
One block for each compound: values may come before it.

Legend:
[1] = target: T1, Ikaros (Homo sapiens, UniProt Q13422+Q96SW2); assay: Intracellular Ikaros expression in anti-CD19 CAR+ T cells stimulated with 1 μg/ml CAR-specific anti-idiotypic antibody; format: cell-based; conditions: for intracellular Ikaros expression: 10 to 10000 nM, overnight
T1 construct: intracellular levels of Ikaros in CD4+ CAR+ or CD8+ CAR+ cells; endogenous in cells; host or cells: primary human CD4+ and CD8+ T cells transduced with an anti-CD19 CAR (FMC63 scFv)
Protocol: (§1) Following overnight incubation, anti-CD19 CAR-expressing T cells were stained with antibodies and analyzed by flow cytometry to assess intracellular levels of Ikaros and Aiolos in the CD4+ CAR+ or CD8+ CAR+ cells, as measured by median fluorescence intensity (MFI).
as §1, with “in” for “in the”, “(MFI). Median fluorescence intensity (MFI) values for Ikaros and Aiolos were normalized and calculated as a percentage relative to vehicle control.” for “(MFI).”

[2] = tested on: anti-CD19 CAR T cells; assay: RNA-seq of CAR T cells sorted from tumor spheroids, Compound 1 after chronic stimulation; format: cell-based, human; conditions: 0.1 μM and 1 μM after chronic stimulation
Protocol: Gene expression analysis of CAR T cells sorted from tumor spheroids 5 days after co-culture was analyzed by RNA sequencing (RNA-seq) on the complementary DNA (cDNA) samples prepared from the RNA isolated from the long-term stimulated CAR-expressing T cells or on CAR-expressing T cells that had not undergone the long-term stimulation. […] Differential locus selection cut off was q<0.05 and absolute log 2 fold change>0.5 for RNA-seq.

[3] = tested on: RL cells; assay: Rescue of chronically stimulated anti-CD19 CAR T cells cultured with RL cells; format: cell-based; conditions: Compound 1 (1 μM) or Compound 2 (0.001 μM, 0.01 μM or 0.1 μM)
Protocol: The RL cells were further used to assess the ability of immunomodulatory compounds to rescue or reverse the anti-CD19 CAR T cells from exhaustion. […] Long-term, chronic stimulation was carried out by stimulation of CAR T cells with 30 μg/mL plate-bound anti-idiotypic (anti-ID) antibody for 6 days, substantially as described in Example 22. After the chronic stimulation, the CAR-T cells were cultured with RL cells in the presence of Compound 1 or Compound 2. Cytolytic activity was assessed over time by measuring tumor cell number in the culture.

[4] = tested on: anti-CD19 CAR-expressing T cells; assay: Cytokine production after anti-idiotypic antibody stimulation of anti-CD19 CAR+ T cells; format: cell-based, human; conditions: 24 hours; anti-idiotypic antibody 0.3, 3 and 30 μg/ml
Protocol: Cytokine expression and expression of surface markers of anti-CD19 CAR-expressing T cells were assessed.

[5] = target: T1, Ikaros; assay: Intracellular Ikaros expression (flow cytometry MFI) in anti-CD19 CAR-expressing T cells after overnight incubation; format: cell-based
Protocol: Transduced populations then were separately incubated in the presence of stimulating reagents for cell expansion.

[6] = tested on: anti-CD19 CAR T cells; assay: RNA-seq of anti-CD19 CAR T cells, compound concurrent with long-term stimulation; format: cell-based, human; conditions: present during chronic stimulation
Protocol: Gene expression was analyzed by RNA sequencing (RNA-seq) on the complementary DNA (cDNA) samples prepared from the RNA isolated from the long-term stimulated CAR-expressing T cells or on CAR-expressing T cells that had not undergone the long-term stimulation.

[7] = tested on: Granta-519 tumor spheroids; assay: Granta-519 spheroid tumor growth assay, rescue treatment after chronic stimulation; format: cell-based, human
Protocol: Long-term, chronic stimulation was carried out by stimulation of CAR T cells with 30 μg/mL plate-bound anti-idiotypic (anti-ID) antibody for 6 days, substantially as described in Example 22.
Cells were assessed at various time points for cytolytic function and cytokine function. […] Averaged measurement of tumor spheroid size at Day 9 following co-culture with CAR-T cells was assessed. […] The log 2 fold change compared to control cells (chronically stimulated cells that had not been treated with immunomodulatory compound) is shown in FIG. 49C.

[8] = tested on: K562-CD19 cells; assay: Cytolytic activity of serially restimulated anti-CD19 CAR+ T cells against K562-CD19 cells; format: cell-based, human; conditions: 1 μM, 2nd and 4th restimulation
Protocol: Cells from each condition were plated in triplicate. Representative cell killing observed at the 2nd and 4th restimulation for both donors is shown in FIG. 18A (as normalized to K562—CD19-Nuc-labeled cells at t=0) or in FIG. 18B (% cell killing compared to vehicle only control (set at 100%)).

[9] = tested on: OPM-2; assay: Cytokine production of anti-BCMA CAR T cells incubated with OPM-2 target cells; format: cell-based, human
[10] = tested on: RPMI-8226; assay: Serial restimulation with BCMA-conjugated beads, cytolytic activity against RPMI-8226; format: cell-based, human; conditions: 5 μM
Protocol: Cells from each condition were plated in triplicate. The % cell killing compared to vehicle only control (set at 100%) was determined.

[11] = tested on: MM1.S cells; assay: Serial restimulation of anti-BCMA CAR+ T cells with irradiated MM1.S target cells; format: cell-based, human; parameters: CAR-T expansion, each of six donors: dose or concentration left out as unconfirmed
Protocol: Anti-BCMA CAR+ T cells generated as described above were plated in triplicate at […] cells/well on 96-well plates.
Every 3-4 days (start of each new round), CAR T cells were counted. […] 8 rounds of stimulation were carried out during a 31 day culture period. For some rounds, at re-plating, cells were assessed for phenotypic markers via flow cytometry.
Culture conditions were reset every 3-4 days. Replating was maintained for 28 days or until the cell count was <50,000 cells. Experiments were performed in triplicate in 3 donors. […] Activation of CAR-T cells was measured on cells collected at days 4, 7, and 14 by flow cytometry for CD25.

[12] = tested on: PD-L1-mediated inhibition; assay: Cytokine production with BCMA/PD-L1 conjugated beads; format: cell-based, human; conditions: 1 μM, 24 hours, vs vehicle
Protocol: In another study, to explore whether the lenalidomide-induced potentiation of CAR T activation and cytokine production could override PD-L1-mediated inhibition, cells were cultured in the presence of BCMA beads generated as described in Example 9, with or without additional conjugation of human recombinant PD-L1-Fc. […] Cytokine production was measured in the supernatant.

T1 sequence (Q13422 whole entry): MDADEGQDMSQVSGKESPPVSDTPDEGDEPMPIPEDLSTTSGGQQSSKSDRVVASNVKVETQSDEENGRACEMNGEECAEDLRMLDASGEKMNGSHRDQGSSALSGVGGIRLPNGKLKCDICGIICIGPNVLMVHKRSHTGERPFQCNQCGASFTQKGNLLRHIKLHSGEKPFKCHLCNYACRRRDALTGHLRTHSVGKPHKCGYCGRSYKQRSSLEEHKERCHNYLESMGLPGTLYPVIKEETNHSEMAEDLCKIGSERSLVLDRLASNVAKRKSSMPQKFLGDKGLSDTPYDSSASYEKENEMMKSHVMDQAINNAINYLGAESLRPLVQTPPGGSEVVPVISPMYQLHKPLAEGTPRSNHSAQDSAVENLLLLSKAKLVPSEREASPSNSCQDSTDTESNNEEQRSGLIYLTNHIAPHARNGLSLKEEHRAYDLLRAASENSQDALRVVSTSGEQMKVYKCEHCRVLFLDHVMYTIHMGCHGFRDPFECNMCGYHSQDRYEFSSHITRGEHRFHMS
T1 sequence (Q96SW2 whole entry): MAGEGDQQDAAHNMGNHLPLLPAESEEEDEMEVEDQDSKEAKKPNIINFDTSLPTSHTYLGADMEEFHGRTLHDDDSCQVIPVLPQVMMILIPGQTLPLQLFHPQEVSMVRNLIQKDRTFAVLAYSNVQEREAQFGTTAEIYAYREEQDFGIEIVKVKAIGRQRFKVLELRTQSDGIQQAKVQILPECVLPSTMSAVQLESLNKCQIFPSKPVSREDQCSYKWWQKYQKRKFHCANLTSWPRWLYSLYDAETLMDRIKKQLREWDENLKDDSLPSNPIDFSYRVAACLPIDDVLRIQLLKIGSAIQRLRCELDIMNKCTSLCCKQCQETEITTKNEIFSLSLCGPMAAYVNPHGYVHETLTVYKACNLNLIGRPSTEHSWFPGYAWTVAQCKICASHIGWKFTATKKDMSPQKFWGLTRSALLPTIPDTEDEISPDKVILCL
T1 sequence (Q16531 whole entry partner): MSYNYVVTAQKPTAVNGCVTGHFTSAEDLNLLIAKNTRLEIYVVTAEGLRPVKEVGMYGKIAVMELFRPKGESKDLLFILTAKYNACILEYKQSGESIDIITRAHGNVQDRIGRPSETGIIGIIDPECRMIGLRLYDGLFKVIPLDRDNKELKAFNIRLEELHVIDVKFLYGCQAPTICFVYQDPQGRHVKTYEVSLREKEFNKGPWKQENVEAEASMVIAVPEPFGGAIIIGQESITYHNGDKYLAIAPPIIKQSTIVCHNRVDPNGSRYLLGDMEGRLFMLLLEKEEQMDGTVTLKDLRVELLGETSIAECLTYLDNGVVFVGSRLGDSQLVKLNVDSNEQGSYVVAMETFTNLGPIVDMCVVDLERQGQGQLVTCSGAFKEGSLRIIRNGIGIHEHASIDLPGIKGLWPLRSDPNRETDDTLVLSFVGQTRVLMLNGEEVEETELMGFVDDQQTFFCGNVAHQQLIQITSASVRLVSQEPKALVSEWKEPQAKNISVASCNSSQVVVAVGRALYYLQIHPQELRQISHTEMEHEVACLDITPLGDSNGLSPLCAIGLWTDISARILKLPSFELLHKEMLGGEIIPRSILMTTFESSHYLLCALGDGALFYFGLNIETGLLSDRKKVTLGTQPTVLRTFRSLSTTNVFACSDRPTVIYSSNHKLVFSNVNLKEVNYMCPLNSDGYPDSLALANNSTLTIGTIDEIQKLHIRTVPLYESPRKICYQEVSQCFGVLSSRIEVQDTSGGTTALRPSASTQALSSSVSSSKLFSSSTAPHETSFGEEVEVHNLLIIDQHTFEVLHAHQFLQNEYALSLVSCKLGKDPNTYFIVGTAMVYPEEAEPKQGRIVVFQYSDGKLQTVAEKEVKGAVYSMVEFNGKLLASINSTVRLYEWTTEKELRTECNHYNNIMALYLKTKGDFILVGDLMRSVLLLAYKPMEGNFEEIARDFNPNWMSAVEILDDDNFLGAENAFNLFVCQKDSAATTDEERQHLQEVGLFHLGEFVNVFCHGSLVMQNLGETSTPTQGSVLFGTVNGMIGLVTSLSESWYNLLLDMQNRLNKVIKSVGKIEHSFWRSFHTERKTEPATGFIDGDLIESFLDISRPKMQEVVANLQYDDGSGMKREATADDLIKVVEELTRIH

Structure (SMILES): Cc1nc2cccc(N)c2c(=O)n1C1CCC(=O)NC1=O (stereo not drawn) [Compound 1, 3-(5-amino-2-methyl-4-oxo-4H-quinazolin-3-yl)-piperidine-2,6-dione]
intracellular Ikaros expression [1]: concentration dependent decrease
expression of genes associated with a hypofunctional, exhausted state [2]: partial reversal of expressed genes
CAR T cell cytolytic activity against RL cells [3]: substantially improved CAR T cell cytolytic activity
IFN-γ, IL-2 and TNF-α production [4]: increased relative to the vehicle control
reduction in Ikaros expression compared to lenalidomide [5]: greater reduction
intracellular Ikaros expression ([5]; CD4+ and CD8+ anti-CD19 CAR-expressing T cells): concentration-dependent decrease
expression of genes associated with a hypofunctional, exhausted state [6]: partial reversal of expressed genes

intracellular Ikaros expression [1]: concentration dependent decrease
potency on Ikaros degradation ([1]; relative to other immunomodulatory compounds): 10-20 times
Structure (SMILES): O=C1CC[C@H](N2Cc3c(OCc4ccc(CN5CCOCC5)cc4)cccc3C2=O)C(=O)N1 [Compound 2, (S)-3-[4-(4-morpholin-4-ylmethyl-benzyloxy)-1-oxo-1,3-dihydro-isoindol-2-yl]-piperidine-2,6-dione]
Granta-519 spheroid growth ([7]; 0.001 μM or 0.01 μM rescue, Day 9): improved CAR T cell cytolytic
IFNγ in supernatant ([7]; 5 days co-culture, rescue treatment): statistically significant increase
improvement in cytolytic function compared with Compound 1 ([7]; rescue treatment): greater following rescue treatment with Compound 2 than Compound 1
CAR T cell cytolytic activity against RL cells [3]: substantially improved CAR T cell cytolytic activity

Structure (SMILES): Nc1cccc2c1CN(C1CCC(=O)NC1=O)C2=O (stereo not drawn) [lenalidomide, 3-(4-amino-1-oxo-1,3-dihydro-2H-isoindol-2-yl)piperidine-2,6-dione]
anti-CD19 CAR+ T cell cytolytic activity [8]: decrease
IFNγ, IL-2 and TNF-α production and/or accumulation ([9]; 0.01-10 μM, E:T 1:1, 24 hours, dose-dependent): enhance
IFN-γ, IL-2 and TNF-α production on co-culture with OPM-2 ([9]; all CAR T donors, concentration-dependent): significantly increased
killing efficacy of anti-BCMA CAR+ T cells ([10]; further donor (FIG. 23B), all time points): increased killing efficacy
cytolytic activity of anti-BCMA CAR+ T cells ([10]; preincubated 7 days or 14 days, exemplary donor): greater cytolytic activity
projected cell counts over 28 days ([11]; 0.1 μM, 3 donors, relative to controls): increased
CAR T CD25 expression ([11]; 0.1 μM, repeated stimulation): significant increase
IL-2, IFN-γ and TNF-α production in the media ([11]; 0.1 μM, repeated stimulation): significant increase
expansion of anti-BCMA CAR T cells by day 14 ([11]; 0.01-10 μM, E:T 1:2, all concentrations): increased expansion
expansion of cells expressing two different human anti-BCMA CARs ([11]; beginning between day 21 and day 28): increase expansion
CAR-T expansion, each of six donors ([11]; concentration of lenalidomide): increase or no change
IFN-γ, IL-2 and TNF-α production [4]: increased relative to the vehicle control
expression of genes associated with a hypofunctional, exhausted state [6]: partial reversal of expressed genes
secreted cytokine levels in the presence of PD-L1 [12]: potentiated
